Here are results for one compound from ChEMBL document CHEMBL6153155, “Novel Cyclohexyl Amido Acid Antagonists of Lysophosphatidic Acid Type 1 Receptor for the Treatment of Pulmonary Fibrosis” (ACS Med Chem Lett, 2025).

Data set [1] deals with T1, Lysophosphatidic acid receptor 3 (Homo sapiens, UniProt Q9UBY5).
T1 sequence (Q9UBY5 whole entry): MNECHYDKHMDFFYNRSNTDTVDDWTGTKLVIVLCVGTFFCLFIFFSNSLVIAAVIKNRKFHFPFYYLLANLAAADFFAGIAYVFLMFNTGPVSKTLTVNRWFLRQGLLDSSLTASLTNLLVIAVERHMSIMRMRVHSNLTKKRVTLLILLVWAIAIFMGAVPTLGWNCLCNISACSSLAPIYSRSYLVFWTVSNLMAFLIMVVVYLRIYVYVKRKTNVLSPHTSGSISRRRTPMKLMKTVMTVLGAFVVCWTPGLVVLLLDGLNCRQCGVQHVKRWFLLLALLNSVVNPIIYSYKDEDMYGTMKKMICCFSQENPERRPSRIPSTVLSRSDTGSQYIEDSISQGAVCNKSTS
The data set is described as follows: Antagonist activity at human LPA3 expressed in human HeLa cells incubated for 30 mins by FLIPR-based calcium mobilization assay. The format is functional, cell-based. On the technique in general: Calcium assays in cells follow changes in intracellular calcium, usually with a dye or a luminescent sensor.

Data set [2] is described as follows: Total Cmax in female C57BL/6J mouse plasma at 30 mg/kg, po measured after 24 hrs by UPLC-MS/MS analysis. It is filed as ADME, organism-based.
The nature of data set [3]: Total Cmax in female C57BL/6J mouse lung at 30 mg/kg, po measured after 24 hrs by UPLC-MS/MS analysis. It is filed as ADME, organism-based.
The next data set relates to Mus musculus. The data set is described as follows: Inhibition of LPA-stimulated histamine release in male CD1 mouse plasma assessed as effective dose administered as po dose pretreated for 30 mins followed by LPA addition measured after 2 mins by enzyme immunoassay. Conditions: 32 min. It is filed as functional.
Another data set concerns the target BSEP (Homo sapiens, UniProt O95342). Put plainly: Inhibition of BSEP in cryopreserved sandwich-cultured human hepatocytes by measuring reduction in TCA biliary clearance using taurocholic acid as substrate at 50 uM relative to control. The conditions noted are these: cryopreserved sandwich-cultured hepatocytes, probe taurocholic acid. It is filed as cell-based, Hepatocyte.

Data set [4] can be described thus: Toxicity in cynomolgus monkey assessed as decreased activity at 210 mg/kg/day, po bid measured after 4 days. The format is organism-based, Macaca fascicularis. The conditions noted are these: in vivo, 96 h, time 4 day.
For data set [5], the target named is Phosphatidylcholine translocator ABCB4 (Homo sapiens, UniProt P21439). The data set is described as follows: Inhibition of MDR3 in human hepatocytes in the presence of TCA incubated for 3 hrs by LC-MS/MS. It is filed as cell-based, Hepatocyte.
Sequence of Phosphatidylcholine translocator ABCB4 (P21439 whole entry): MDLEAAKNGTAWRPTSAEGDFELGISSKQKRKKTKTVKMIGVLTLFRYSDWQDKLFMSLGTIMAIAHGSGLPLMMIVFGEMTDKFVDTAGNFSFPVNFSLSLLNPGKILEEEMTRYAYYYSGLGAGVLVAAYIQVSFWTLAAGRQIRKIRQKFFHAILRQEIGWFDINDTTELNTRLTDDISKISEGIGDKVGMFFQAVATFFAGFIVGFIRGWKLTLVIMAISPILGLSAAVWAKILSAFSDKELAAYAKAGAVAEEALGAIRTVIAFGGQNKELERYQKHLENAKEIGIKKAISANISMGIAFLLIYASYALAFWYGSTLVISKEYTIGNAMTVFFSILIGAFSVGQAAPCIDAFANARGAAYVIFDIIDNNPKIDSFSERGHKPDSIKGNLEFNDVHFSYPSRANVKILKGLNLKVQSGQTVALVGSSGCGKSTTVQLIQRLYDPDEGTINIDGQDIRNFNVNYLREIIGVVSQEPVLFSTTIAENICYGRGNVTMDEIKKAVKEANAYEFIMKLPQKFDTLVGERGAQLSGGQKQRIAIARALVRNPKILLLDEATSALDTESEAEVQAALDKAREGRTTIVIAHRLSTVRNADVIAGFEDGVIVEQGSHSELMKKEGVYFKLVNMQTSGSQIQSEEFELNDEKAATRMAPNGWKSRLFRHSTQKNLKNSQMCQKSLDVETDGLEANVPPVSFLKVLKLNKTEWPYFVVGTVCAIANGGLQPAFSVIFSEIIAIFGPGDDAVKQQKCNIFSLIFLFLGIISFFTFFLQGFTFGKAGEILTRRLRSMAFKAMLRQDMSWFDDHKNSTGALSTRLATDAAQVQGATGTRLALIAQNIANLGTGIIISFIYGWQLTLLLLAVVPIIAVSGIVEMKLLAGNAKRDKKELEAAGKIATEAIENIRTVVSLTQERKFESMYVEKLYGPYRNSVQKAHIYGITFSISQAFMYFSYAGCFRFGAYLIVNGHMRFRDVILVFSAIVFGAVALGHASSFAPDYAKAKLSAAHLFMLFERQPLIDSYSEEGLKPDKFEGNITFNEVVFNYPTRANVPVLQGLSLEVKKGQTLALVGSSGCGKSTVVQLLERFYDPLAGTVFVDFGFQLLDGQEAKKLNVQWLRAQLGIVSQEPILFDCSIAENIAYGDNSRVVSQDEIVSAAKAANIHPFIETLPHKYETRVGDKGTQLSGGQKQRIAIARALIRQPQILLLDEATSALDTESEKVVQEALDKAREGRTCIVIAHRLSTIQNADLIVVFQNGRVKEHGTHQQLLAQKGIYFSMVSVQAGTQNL
In data set [6] the target is T2, Solute carrier organic anion transporter family member 1B1 (Homo sapiens, UniProt Q9Y6L6).
T2 sequence (Q9Y6L6 whole entry): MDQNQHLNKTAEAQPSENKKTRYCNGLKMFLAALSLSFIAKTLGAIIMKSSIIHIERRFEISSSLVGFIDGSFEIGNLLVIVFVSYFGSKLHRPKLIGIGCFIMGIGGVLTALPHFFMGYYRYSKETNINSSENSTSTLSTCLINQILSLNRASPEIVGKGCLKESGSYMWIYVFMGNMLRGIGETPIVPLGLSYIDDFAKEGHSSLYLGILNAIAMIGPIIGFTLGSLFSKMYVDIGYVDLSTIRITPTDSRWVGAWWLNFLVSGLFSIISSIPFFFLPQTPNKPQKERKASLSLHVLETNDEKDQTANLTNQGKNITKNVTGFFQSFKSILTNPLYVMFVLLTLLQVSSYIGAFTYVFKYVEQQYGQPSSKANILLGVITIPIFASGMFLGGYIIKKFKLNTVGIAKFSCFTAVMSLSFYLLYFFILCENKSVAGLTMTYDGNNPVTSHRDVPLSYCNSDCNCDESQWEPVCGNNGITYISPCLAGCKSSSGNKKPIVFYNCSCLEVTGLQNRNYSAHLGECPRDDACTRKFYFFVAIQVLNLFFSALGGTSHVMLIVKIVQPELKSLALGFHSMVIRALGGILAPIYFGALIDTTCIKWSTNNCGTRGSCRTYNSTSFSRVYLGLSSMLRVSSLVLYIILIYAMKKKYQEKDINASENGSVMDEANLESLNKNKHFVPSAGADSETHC
The data set is described as follows: Inhibition of human OATP1B1 in HEK293 cells. It is filed as cell-based.

The target in data set [7] is T3, Solute carrier organic anion transporter family member 1B3 (Homo sapiens, UniProt Q9NPD5).
T3 sequence (Q9NPD5 whole entry): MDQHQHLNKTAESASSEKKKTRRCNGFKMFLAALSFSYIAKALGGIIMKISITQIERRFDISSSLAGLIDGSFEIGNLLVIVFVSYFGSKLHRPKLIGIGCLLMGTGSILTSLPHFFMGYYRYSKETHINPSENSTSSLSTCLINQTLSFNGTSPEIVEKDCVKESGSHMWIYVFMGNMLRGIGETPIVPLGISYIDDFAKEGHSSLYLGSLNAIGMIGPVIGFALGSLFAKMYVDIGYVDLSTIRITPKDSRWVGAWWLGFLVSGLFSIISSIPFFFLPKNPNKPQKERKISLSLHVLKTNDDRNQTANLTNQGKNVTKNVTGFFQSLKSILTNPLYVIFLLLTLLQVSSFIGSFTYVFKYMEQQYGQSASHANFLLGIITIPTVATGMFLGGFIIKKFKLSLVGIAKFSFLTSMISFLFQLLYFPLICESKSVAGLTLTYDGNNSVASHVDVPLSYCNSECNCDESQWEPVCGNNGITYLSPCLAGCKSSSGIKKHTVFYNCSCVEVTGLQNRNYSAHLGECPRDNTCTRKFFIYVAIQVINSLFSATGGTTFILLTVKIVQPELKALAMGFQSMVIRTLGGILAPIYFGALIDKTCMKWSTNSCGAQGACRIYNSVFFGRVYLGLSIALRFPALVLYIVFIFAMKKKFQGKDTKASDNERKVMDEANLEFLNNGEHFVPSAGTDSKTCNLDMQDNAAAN
The data set is described as follows: Inhibition of human OATP1B3 in HEK293 cells. It is filed as cell-based.

Data set [8] can be described thus: Oral bioavailability in female C57BL/6J mouse at 2 mg/kg, iv measured after 24 hrs by UPLC-MS/MS analysis. The format is ADME, organism-based. The conditions noted are these: in vivo.
Data set [9] is described as follows: Toxicity in cynomolgus monkey assessed as appearance of sinusoidal leukocytosis in liver at 50 mg/kg, po bid by microscopic analysis. Conditions: in vivo. The format is organism-based, Macaca fascicularis.
Data set [10] in a line: Metabolic stability in human liver microsomes assessed as intrinsic clearance measured per mg of protein at 0.5 uM measured upto 45 mins in presence of NADPH regenerating system by HPLC-MS/MS analysis. The format is ADME, Microsome. The conditions noted are these: read-out: CLH. For orientation: Liver microsomes are vesicles of endoplasmic reticulum, rich in cytochrome P450 enzymes.

The nature of data set [11]: Total AUClast in female C57BL/6J mouse lung at 30 mg/kg, po measured after 24 hrs by UPLC-MS/MS analysis. It is filed as ADME, organism-based. The conditions noted are these: in vivo.
Data set [12] is described as follows: Unbound AUClast in female C57BL/6J mouse lung at 30 mg/kg, po measured after 24 hrs by UPLC-MS/MS analysis. It is filed as ADME, organism-based. The conditions noted are these: in vivo.

Molecules are shown by their SMILES.

Sequence of BSEP (O95342 whole entry): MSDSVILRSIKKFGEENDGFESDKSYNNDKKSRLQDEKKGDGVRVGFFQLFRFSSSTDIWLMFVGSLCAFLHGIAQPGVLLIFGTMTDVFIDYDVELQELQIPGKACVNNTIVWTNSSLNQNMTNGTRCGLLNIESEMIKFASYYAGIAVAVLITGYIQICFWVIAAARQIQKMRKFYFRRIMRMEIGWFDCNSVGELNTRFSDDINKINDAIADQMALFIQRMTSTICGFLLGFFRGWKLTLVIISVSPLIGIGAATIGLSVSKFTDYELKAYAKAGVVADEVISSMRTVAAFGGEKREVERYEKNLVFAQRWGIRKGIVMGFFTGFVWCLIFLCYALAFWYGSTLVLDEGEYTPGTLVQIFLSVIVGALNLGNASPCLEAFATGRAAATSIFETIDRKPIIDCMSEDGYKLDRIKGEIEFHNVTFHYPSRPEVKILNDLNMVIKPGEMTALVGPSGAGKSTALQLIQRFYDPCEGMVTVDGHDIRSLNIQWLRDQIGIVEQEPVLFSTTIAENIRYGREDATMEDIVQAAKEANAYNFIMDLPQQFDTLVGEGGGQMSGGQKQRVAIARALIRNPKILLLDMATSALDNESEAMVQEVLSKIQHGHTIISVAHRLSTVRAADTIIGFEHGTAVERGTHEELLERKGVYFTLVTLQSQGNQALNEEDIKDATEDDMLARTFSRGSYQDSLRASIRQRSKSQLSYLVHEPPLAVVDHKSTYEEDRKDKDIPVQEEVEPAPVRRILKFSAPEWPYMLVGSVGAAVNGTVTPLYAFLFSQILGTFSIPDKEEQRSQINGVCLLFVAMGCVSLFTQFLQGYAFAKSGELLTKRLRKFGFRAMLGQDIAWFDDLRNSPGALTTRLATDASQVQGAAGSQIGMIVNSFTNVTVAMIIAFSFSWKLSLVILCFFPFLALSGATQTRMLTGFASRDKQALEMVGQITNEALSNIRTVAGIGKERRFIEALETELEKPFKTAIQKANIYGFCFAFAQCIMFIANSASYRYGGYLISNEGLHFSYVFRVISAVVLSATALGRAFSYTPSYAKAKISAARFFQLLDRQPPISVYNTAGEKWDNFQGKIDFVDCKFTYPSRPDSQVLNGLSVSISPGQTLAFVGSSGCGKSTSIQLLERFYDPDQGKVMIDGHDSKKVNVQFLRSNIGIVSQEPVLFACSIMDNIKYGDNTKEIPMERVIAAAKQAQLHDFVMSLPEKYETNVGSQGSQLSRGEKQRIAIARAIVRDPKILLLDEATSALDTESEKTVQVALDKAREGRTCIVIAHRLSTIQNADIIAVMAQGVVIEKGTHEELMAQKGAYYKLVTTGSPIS

Take `Cc1nc(-c2onc(C)c2NC(=O)O[C@H](C)c2ccccc2Cl)ccc1NC(=O)[C@H]1CCCC[C@@H]1C(=O)O`: the IC50 in [1] is 37.2 µM; in [5], 251 µM; in data set [6] it was 5.01 µM; in data set [7], 7.94 µM. Also, the highest concentration (Cmax) amounted to 99.4 µg/mL in [2] and 41.3 µg/mL in data set [3]. Also, in the data set on Mus musculus, the ED50 was 0.04 mg/kg. At 50 µM the inhibition against BSEP was 50%. Besides, the Activity entry in data set [4] and in [9] was “Toxic” each time. In [8], this compound displayed a bioavailability of 100%. Moreover, the microsomal CLint at 0.5 µM in data set [10] was 7 µL/min/mg. Also, in [11], the AUClast came out at 123000 h/ng/mL. The fAUClast in [12] came out at 4624 h/ng/mL.

By IC50 is commonly meant the concentration that inhibits the measured activity by half. For orientation: Cmax means the peak of the concentration-time curve. Usually ED50 stands for the dose that gives a 50% effect, or the effect in half of the subjects. As usually defined, the inhibition is the change of the read-out against control, counted positive when it falls. What is called bioavailability is dose-corrected exposure relative to a reference, in per cent.
